These results are taken from ChEMBL document CHEMBL1141032, “Design and synthesis of peptidomimetic severe acute respiratory syndrome chymotrypsin-like protease inhibitors” (J Med Chem, 2005).

In test [1] the target is Replicase polyprotein 1a (Severe acute respiratory syndrome-related coronavirus) (UniProt P0C6U8). Description: Half life period against SARS-CoV 3CLpro protease.
Test [2] shares this target. Description: Inactivation rate constant against SARS-CoV 3CLpro protease.
Test [3] concerns the target Replicase polyprotein 1a (Severe acute respiratory syndrome-related coronavirus, UniProt P0C6U8). Description: Inhibitory concentration required for antiviral activity against SARS-CoV 3CLpro protease.
Test [4] deals with Replicase polyprotein 1a (Severe acute respiratory syndrome-related coronavirus) (UniProt P0C6U8).

For orientation: kinact means the rate constant of inactivation at saturating inhibitor. As to `CCOC(=O)/C=C/[C@H](C[C@@H]1CCNC1=O)NC(=O)[C@H](Cc1ccccc1)CC(O)[C@@H](NC(=O)c1cc(C)on1)C(C)C` (some centres undefined), the T1/2 in test [1] came out at 4.62 h. Besides, in test [2], the kinact amounted to 0.0025 min⁻¹.
A word on the IC50: it is the concentration at which inhibition is half-maximal. In the case of `CCOC(=O)/C=C/[C@H](C[C@@H]1CCNC1=O)NC(=O)[C@@H](CC(=O)[C@@H](NC(=O)c1cc(C)on1)C(C)C)Cc1ccccc1`, the concentration for half-maximal inhibition (IC50) in test [3] was 45 µM. Moreover, the T1/2 in test [1] was 0.817 h. Moreover, the inactivation rate constant (kinact) in test [2] stood at 0.014 min⁻¹.
Turning to `CCOC(=O)/C=C/[C@H](C[C@@H]1CCNC1=O)NC(=O)[C@H](CC=C(C)C)CC(=O)[C@@H](NC(=O)c1cc(C)on1)C(C)C`, the kinact in test [4] was 0.045 min⁻¹. The T1/2 in test [1] came out at 0.25 h.
The molecule `CC(C)C[C@H](NC(=O)[C@@H](O)C(S)C(=O)O)C(=O)NCCCCN=C(N)N` (some centres undefined) yielded a T1/2 in test [1] of 5.25 h. Moreover, the maximal inactivation rate constant (kinact) in test [2] turned out to be 0.0022 min⁻¹.
